Values belong to the compound of their own block, whether it stands above or below them.
Legend:
[1] = antirhinoviral activity against HRV Protease 3CP (serotype 14)
[2] = antirhinoviral activity against HRV Protease 3CP (serotype 1A)
[3] = antirhinoviral activity against HRV Protease 3CP (serotype 10)
[4] = antirhinoviral activity against HRV Protease 3CP (serotype 2)
[5] = antirhinoviral activity against HRV Protease 3CP (serotype 9)
[6] = antirhinoviral activity against HRV Protease 3CP (serotype 3)
[7] = antirhinoviral activity against HRV Protease 3CP (serotype 16)
[8] = antirhinoviral activity against HRV Protease 3CP (serotype 19)
[9] = antirhinoviral activity against HRV Protease 3CP (serotype 1A); remark: listed apart in the source
[10] = antirhinoviral activity against HRV Protease 3CP (serotype 11)
[11] = antirhinoviral activity against HRV Protease 3CP (serotype 78)
[12] = antirhinoviral activity against HRV Protease 3CP (serotype 39)
[13] = antirhinoviral activity against HRV Protease 3CP (serotype 23)
[14] = antirhinoviral activity against HRV Protease 3CP (serotype 25)
[15] = antirhinoviral activity against HRV Protease 3CP (serotype 10); remark: listed apart in the source
[16] = antirhinoviral activity against HRV Protease 3CP (serotype 13)
[17] = antirhinoviral activity against HRV Protease 3CP (serotype Hanks)
[18] = antirhinoviral activity against Human Rhinovirus Protease 3C (serotype 14)
[19] = antirhinoviral activity against Human Rhinovirus Protease 3C (serotype 10)
[20] = antirhinoviral activity against Human Rhinovirus Protease 3C (serotype 1A)

- EC50 [1]: 0.003 µM
Compound: CCOC(=O)/C=C/[C@H](C[C@@H]1CCNC1=O)NC(=O)[C@H](Cc1ccccc1)n1cccc(NC(=O)OCc2ccccc2)c1=O [4-[2-(3-Benzyloxycarbonylamino-2-oxo-2H-pyridin-1-yl)-3-phenyl-propionylamino]-5-(2-oxo-pyrrolidin-3-yl)-pent-2-enoic acid ethyl ester]

- EC50 [2]: 1.18 µM
- EC50 [3]: 1.41 µM
Compound: CCOC(=O)/C=C/[C@H](CCC(N)=O)NC(=O)[C@H](Cc1ccccc1)n1cccc(NC(=O)C2SCCS2)c1=O [6-Carbamoyl-4-(2-{3-[([1,3]dithiolane-2-carbonyl)-amino]-2-oxo-2H-pyridin-1-yl}-3-phenyl-propionylamino)-hex-2-enoic acid ethyl ester]

- EC50 [2]: 0.006 µM
- EC50 [3]: 0.005 µM
Compound: CCOC(=O)/C=C/[C@H](C[C@@H]1CCNC1=O)NC(=O)[C@H](Cc1ccc(F)c(F)c1)n1cccc(NC(=O)c2cc(C)on2)c1=O [(1S,5S)-4-((S)-3-(3,4-Difluoro-phenyl)-2-{3-[(5-methyl-isoxazole-3-carbonyl)-amino]-2-oxo-2H-pyridin-1-yl}-propionylamino)-5-(2-oxo-pyrrolidin-3-yl)-pent-2-enoic acid ethyl ester]

- EC50 [2]: 0.607 µM
- EC50 [3]: 0.111 µM
Compound: CCOC(=O)/C=C/[C@H](CCC(N)=O)NC(=O)[C@H](Cc1ccc(F)cc1)n1cccc(NC(=O)OCc2ccccc2)c1=O [4-[2-(3-Benzyloxycarbonylamino-2-oxo-2H-pyridin-1-yl)-3-(4-fluoro-phenyl)-propionylamino]-6-carbamoyl-hex-2-enoic acid ethyl ester]

- EC50 [2]: 0.513 µM
- EC50 [3]: 0.032 µM
Compound: CCOC(=O)/C=C/[C@H](CCC(N)=O)NC(=O)[C@H](Cc1ccc(F)c(F)c1)n1cccc(NC(=O)OCc2ccccc2)c1=O [4-[2-(3-Benzyloxycarbonylamino-2-oxo-2H-pyridin-1-yl)-3-(3,4-difluoro-phenyl)-propionylamino]-6-carbamoyl-hex-2-enoic acid ethyl ester]

- EC50 [2]: 0.015 µM
- EC50 [3]: 0.004 µM
Compound: CCOC(=O)/C=C/[C@H](C[C@@H]1CCNC1=O)NC(=O)[C@H](Cc1ccc(F)cc1)n1cccc(NC(=O)c2cc(C)on2)c1=O [4-(3-(4-Fluoro-phenyl)-2-{3-[(5-methyl-isoxazole-3-carbonyl)-amino]-2-oxo-2H-pyridin-1-yl}-propionylamino)-5-(2-oxo-pyrrolidin-3-yl)-pent-2-enoic acid ethyl ester]

- EC50 [4]: 0.048 µM
- EC50 [5]: 0.109 µM
- EC50 [6]: 0.033 µM
- EC50 [7]: 0.036 µM
- EC50 [8]: 0.009 µM
- EC50 [9]: 0.132 µM
- EC50 [10]: 0.003 µM
- EC50 [11]: 0.012 µM
- EC50 [1]: 0.003 µM
- EC50 [12]: 0.044 µM
- EC50 [13]: 0.01 µM
- EC50 [14]: 0.1 µM
- EC50 [15]: 0.085 µM
- EC50 [16]: 0.044 µM
- EC50 [17]: 0.003 µM
Compound: Cc1cc(C(=O)Nc2cccn([C@@H](Cc3ccc(F)c(F)c3)C(=O)N[C@H](/C=C/C(=O)OC(C)C)C[C@@H]3CCNC3=O)c2=O)no1 [(1S,5S)-4-((S)-3-(3,4-Difluoro-phenyl)-2-{3-[(5-methyl-isoxazole-3-carbonyl)-amino]-2-oxo-2H-pyridin-1-yl}-propionylamino)-5-(2-oxo-pyrrolidin-3-yl)-pent-2-enoic acid isopropyl ester]

- EC50 [18]: 0.033 µM
- EC50 [19]: 0.372 µM
- EC50 [20]: 1.25 µM
Compound: CCOC(=O)/C=C/[C@H](CCC(N)=O)NC(=O)[C@H](Cc1ccccc1)n1cccc(NC(=O)OCc2ccccc2)c1=O [(E)-(S)-4-[(S)-2-(3-Benzyloxycarbonylamino-2-oxo-2H-pyridin-1-yl)-3-phenyl-propionylamino]-6-carbamoyl-hex-2-enoic acid ethyl ester]
